Measurements: patent US9266844B2 (priority 2012, dated 2016)
“Also recorded” adds a separate entry of the source. Read-outs that look alike come from different tables or passages of the source.

Assays:
SARS-CoV nsp13 helicase = SARS-CoV nsp13 helicase (Severe acute respiratory syndrome coronavirus, UniProt P0C6X7); test: biochemical
HCV NS3h helicase = HCV NS3h helicase (Hepatitis C virus genotype 1a, UniProt P27958); assay type: biochemical
[1] = molecular target: Dengue virus NS3 helicase (Dengue virus type 2, UniProt P14340); assay type: biochemical
Chain of Dengue virus NS3 helicase (P14340 1476-2093 limits assumed): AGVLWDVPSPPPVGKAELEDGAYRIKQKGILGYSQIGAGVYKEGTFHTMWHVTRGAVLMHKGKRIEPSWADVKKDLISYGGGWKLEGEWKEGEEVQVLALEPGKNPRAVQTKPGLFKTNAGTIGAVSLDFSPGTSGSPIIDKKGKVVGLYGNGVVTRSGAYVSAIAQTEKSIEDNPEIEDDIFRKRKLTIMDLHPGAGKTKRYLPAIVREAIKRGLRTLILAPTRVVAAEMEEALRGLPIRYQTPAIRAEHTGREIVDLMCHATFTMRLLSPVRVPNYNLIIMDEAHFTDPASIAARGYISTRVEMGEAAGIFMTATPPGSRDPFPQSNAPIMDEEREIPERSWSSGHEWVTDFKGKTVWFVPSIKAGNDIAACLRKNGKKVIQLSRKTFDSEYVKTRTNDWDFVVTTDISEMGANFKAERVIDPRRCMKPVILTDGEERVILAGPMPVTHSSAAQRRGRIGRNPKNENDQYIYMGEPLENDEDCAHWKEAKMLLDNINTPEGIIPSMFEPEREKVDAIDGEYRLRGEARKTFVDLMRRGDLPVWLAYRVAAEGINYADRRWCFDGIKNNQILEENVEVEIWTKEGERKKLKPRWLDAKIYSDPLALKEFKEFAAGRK

FMDV 3Dpol = FMDV 3Dpol (Foot-and-mouth disease virus serotype O, UniProt P03305); assay type: biochemical
Chain of FMDV 3Dpol (P03305 1863-2332 limits assumed): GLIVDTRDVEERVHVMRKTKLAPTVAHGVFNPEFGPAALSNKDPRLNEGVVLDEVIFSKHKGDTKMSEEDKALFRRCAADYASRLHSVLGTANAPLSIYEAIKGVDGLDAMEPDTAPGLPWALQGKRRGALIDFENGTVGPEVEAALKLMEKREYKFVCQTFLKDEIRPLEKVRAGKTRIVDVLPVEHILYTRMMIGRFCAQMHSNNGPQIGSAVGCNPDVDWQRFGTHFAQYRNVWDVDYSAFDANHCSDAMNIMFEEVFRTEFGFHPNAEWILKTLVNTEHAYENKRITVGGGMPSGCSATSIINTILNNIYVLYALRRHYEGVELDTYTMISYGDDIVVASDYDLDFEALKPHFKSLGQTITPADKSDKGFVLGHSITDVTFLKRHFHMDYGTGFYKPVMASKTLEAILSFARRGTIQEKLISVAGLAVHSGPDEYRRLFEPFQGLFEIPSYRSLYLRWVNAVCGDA

[2] = molecular target: MoMLV Reverse Transcriptase (Moloney murine leukemia virus, UniProt P03355); assay type: biochemical
[3] = molecular target: Klenow fragment of E. coli DNA polymerase I (KF) (Escherichia coli, UniProt P00582); assay type: biochemical
Chain of Klenow fragment of E. coli DNA polymerase I (KF) (P00582 324-928): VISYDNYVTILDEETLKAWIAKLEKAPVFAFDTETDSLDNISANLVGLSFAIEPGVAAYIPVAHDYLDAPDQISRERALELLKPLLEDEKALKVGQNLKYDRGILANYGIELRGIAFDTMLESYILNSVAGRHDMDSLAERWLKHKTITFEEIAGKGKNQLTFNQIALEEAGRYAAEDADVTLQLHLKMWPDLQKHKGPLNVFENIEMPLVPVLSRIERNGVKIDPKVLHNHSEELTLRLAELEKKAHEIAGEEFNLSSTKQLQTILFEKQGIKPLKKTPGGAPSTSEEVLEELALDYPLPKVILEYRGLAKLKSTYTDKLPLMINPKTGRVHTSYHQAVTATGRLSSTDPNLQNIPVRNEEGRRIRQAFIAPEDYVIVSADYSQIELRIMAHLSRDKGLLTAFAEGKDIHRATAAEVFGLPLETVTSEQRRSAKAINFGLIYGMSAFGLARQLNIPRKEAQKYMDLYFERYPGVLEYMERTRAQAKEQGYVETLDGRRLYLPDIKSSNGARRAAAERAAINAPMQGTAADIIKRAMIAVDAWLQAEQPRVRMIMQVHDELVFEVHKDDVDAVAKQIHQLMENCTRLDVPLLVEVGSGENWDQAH

nsp13 [4] = molecular target: T1, nsp13 (Severe acute respiratory syndrome coronavirus, UniProt P0C6X7); test: biochemical; assay type: biochemical, SARS-CoV
nsp13 [5] = molecular target: T1, nsp13; assay type: binding, SARS-CoV
nsp13 [6] = molecular target: T1, nsp13; assay type: biochemical, SARS-CoV
dsDNA (31/18-mer) = assay type: binding
SARS-CoV replicon [7] = test: microbe, parasite or virus in culture; assay type: cell-based; details: read-out: EC50 Replicon (RT-qPCR)
SARS-CoV replicon [8] = assay type: cell-based
RNA pol II/CMV promoter = assay type: cell-based
WT-nsp13 = WT-nsp13 (Severe acute respiratory syndrome coronavirus, UniProt P0C6X7); test: biochemical
in vitro = details: human

Chain of HCV NS3h helicase (P27958 1193-1657 limits assumed): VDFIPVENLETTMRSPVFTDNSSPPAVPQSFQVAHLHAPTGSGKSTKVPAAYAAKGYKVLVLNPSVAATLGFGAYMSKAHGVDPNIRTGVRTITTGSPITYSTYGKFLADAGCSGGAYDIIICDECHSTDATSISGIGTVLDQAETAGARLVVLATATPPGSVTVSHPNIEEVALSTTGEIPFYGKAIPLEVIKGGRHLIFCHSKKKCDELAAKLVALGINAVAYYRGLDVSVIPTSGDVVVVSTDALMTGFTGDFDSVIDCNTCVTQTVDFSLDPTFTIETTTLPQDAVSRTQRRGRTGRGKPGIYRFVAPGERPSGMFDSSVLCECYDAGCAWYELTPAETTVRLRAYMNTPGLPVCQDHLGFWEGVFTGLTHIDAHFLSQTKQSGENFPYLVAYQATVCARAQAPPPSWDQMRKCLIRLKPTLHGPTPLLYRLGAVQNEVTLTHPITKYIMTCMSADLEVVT

C=CCn1c(S)nnc1CSc1ccccc1[N+](=O)[O-] [SSYA10-001, 3-[(2-nitrophenyl)sulfanylmethyl]-4-prop-2-enyl-1H-1,2,4-triazole-5-thione]
IC50 (SARS-CoV nsp13 helicase; IC50 DNA (nsp13 unwinding)): 5.3 ± 2 µM | IC50 (SARS-CoV nsp13 helicase; IC50 RNA (nsp13 unwinding)): 5.7 ± 2.3 µM | IC50 (SARS-CoV nsp13 helicase; IC50 SARS-CoV RNA (nsp13 unwinding)): 5.6 ± 0.5 µM | inhibition at 20 µM (SARS-CoV nsp13 helicase; read-out: inhibition of the helicase activity): ~100% | inhibition of HCV NS3h helicase activity (HCV NS3h helicase): did not inhibit; also recorded: specific for SARS-CoV helicase | inhibition of Dengue virus NS3 helicase activity [1]: specific for SARS-CoV helicase | inhibition of FMDV 3Dpol polymerase (FMDV 3Dpol): did not cause inhibition | inhibition of MoMLV Reverse Transcriptase [2]: did not cause inhibition | effect on KF polymerization and strand displacement (nucleic acid binding of the substance) [3]: did not prevent | inhibition of KF polymerase [3]: did not cause inhibition | Ki (nsp13 [4]): 6 ± 1.7 µM | mode of inhibition with respect to ATP and nucleic acid substrates (nsp13 [4]): non-competitive | effect on nsp13 binding to DNA (nsp13 [5]): did not affect | effect on ATP hydrolysis by nsp13 (nsp13 [6]): did not affect | change of pico green fluorescent counts with dsDNA (dsDNA (31/18-mer)): did not change | EC50 (SARS-CoV replicon [7]; Severe acute respiratory syndrome coronavirus, HEK-293T, 48 h): 8.95 µM | EC50 (SARS-CoV replicon [7]): ~9 µM | effect on SARS-CoV replication (RNase protection assay) (SARS-CoV replicon [8]): interfered with SARS-CoV replication | amount of RNA synthesized in NRC-transfected cells with vs without compound (RNA pol II/CMV promoter): No difference was observed | IC50 (WT-nsp13): 6 µM | cytotoxicity at 250 μM (HEK293T cells): No cytotoxicity was observed | cytostatic effect (cell proliferation) (HEK 293T cells): did not interfere with the proliferation | CC50 (in vitro): > 250 µM
